System: lashes and adjacent hairs of the eyelids
Test: Observation of lashes and adjacent hairs in glaucoma patients taking bimatoprost in only one eye
Assay type: in vivo
Excerpt: In the course of treating patients having glaucoma, treatment may only be appropriate in one eye. […] The lash appearance on the lids of the treated eyes would have appeared quite attractive if it represented a bilateral phenomenon. As a result of its asymmetric nature, the long lashes on one side could be construed as disturbing from a cosmetic standpoint. A systemic examination was preformed as a result of the asymmetric phenomenon. It soon became apparent that this altered appearance was not an isolated finding. […] Definite differences could be identified to varying degrees in the lashes and adjacent hairs of all patients who were taking the drug on a unilateral basis for longer than 6 months.
The changes in the lashes were apparent on gross inspection in several patients once attention was focused on the issue. In those with light colored hair and lashes, the differences were only seen easily with the aid of the high magnification and lighting capabilities of the slit lamp biomicroscope. In the course of glaucoma follow-up examination, attention is generally immediately focused on the eye itself. As a result of the high power magnification needed only one eye is seen at a time and the eye is seen at a high enough power that the lashes are not in focus. […]

`CCNC(=O)CCC/C=C\C[C@@H]1[C@@H](/C=C/[C@@H](O)CCc2ccccc2)[C@H](O)C[C@@H]1O` [bimatoprost] was tested, and the “lashes in the treated eye compared with the non-treated eye” value (glaucoma patient treated in one eye) was “longer, thicker, and fuller” and the “hair growth in treated versus control areas” value (multiple parameters of hair appearance, many subjects) was “stimulated”.
